Laboratory results from PubChem BioAssay (NCI).
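Cells were grown in 96-well plates and exposed to each compound for 48 hours at five concentrations; endpoints were interpolated linearly between bracketing concentrations, or set to the highest concentration if not reached. GI50 marks 50% less growth. At the TGI there is no net growth.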

Assays:
Test in all cases: NCI tumour cell line growth inhibition, 48 h
[1] = test system: CAKI-1 renal
[2] = test system: EKVX NSCLC
[3] = test system: SF-539 CNS
[4] = test system: DU-145 prostate
[5] = test system: PC-3 prostate
[6] = test system: MOLT-4 leukemia
[7] = test system: TK-10 renal
[8] = test system: CCRF-CEM leukemia
[9] = test system: HOP-92 NSCLC
[10] = test system: HCC-2998 colon
[11] = test system: A498 renal
[12] = test system: SNB-75 CNS
[13] = test system: COLO 205 colon
[14] = test system: OVCAR-3 ovarian
[15] = test system: NCI-H226 lung
[16] = test system: MCF7 breast
[17] = test system: T-47D breast
[18] = test system: RPMI-8226 leukemia
[19] = test system: OVCAR-4 ovarian
[20] = test system: NCI-H460 lung
[21] = test system: SK-MEL-2 melanoma
[22] = test system: SN12C renal
[23] = test system: UACC-62 melanoma
[24] = test system: IGROV1 ovarian
[25] = test system: A549 NSCLC
[26] = test system: HCT-15 colon
[27] = test system: UO-31 renal
[28] = test system: OVCAR-8 ovarian
[29] = test system: K-562 leukemia
[30] = test system: M14 melanoma
[31] = test system: NCI/ADR-RES ovarian
[32] = test system: KM12 colon
[33] = test system: SF-295 CNS
[34] = test system: MDA-MB-435
[35] = test system: OVCAR-5 ovarian
[36] = test system: SK-OV-3 ovarian
[37] = test system: MDA-MB-468 breast
[38] = test system: NCI-H23 lung
[39] = test system: HOP-62 NSCLC
[40] = test system: SNB-19 CNS
[41] = test system: ACHN renal
[42] = test system: HT29 colon
[43] = test system: MALME-3M melanoma
[44] = test system: SF-268 CNS
[45] = test system: HCT-116 colon
[46] = test system: SR leukemia
[47] = test system: BT-549 breast
[48] = test system: NCI-H522 lung
[49] = test system: 786-0 renal
[50] = test system: RXF 393 renal
[51] = test system: SK-MEL-28 melanoma
[52] = test system: SK-MEL-5 melanoma
[53] = test system: HL-60(TB) leukemia
[54] = test system: UACC-257 melanoma
[55] = test system: U251 CNS

**Q.** For `C=C1CC[C@@H]2[C@]3(C)COC(c4cn[nH]c4-c4ccc(F)cc4)O[C@@H]3CC[C@@]2(C)[C@@H]1C/C=C1/C(=O)OCC1O` (stereo not given in full), which GI50 [1] is on record?
**A.** The GI50 was 21.5 µM.

**Q.** And the TGI [1]?
**A.** The TGI was 50 µM.

**Q.** What about the GI50 [2] of the same compound?
**A.** Its GI50 is 13.5 µM.

**Q.** And the TGI [2]?
**A.** Its TGI is 26.3 µM.

**Q.** What about the GI50 [3] of the same compound?
**A.** The GI50 was 14.5 µM.

**Q.** And the TGI [3]?
**A.** The TGI was 27.6 µM.

**Q.** And the GI50 [4]?
**A.** Its GI50 is 19.6 µM.

**Q.** What about the TGI [4] of the same compound?
**A.** Its TGI is 43.5 µM.

**Q.** What about the GI50 [5] of the same compound?
**A.** Its GI50 is 15.6 µM.

**Q.** And the TGI [5]?
**A.** The TGI was 43.9 µM.

**Q.** And the GI50 [6]?
**A.** Its GI50 is 20.2 µM.

**Q.** And the TGI [6]?
**A.** The TGI was 77.4 µM.

**Q.** And the GI50 [7]?
**A.** Its GI50 is 19 µM.

**Q.** What about the TGI [7] of the same compound?
**A.** Its TGI is 33 µM.

**Q.** What about the GI50 [8] of the same compound?
**A.** The GI50 was 4.6 µM.

**Q.** And the TGI [8]?
**A.** Its TGI is 38.5 µM.

**Q.** What about the GI50 [9] of the same compound?
**A.** The GI50 was 14.7 µM.

**Q.** And the TGI [9]?
**A.** The TGI was 34.9 µM.

**Q.** And the GI50 [10]?
**A.** The GI50 was 16.3 µM.

**Q.** And the TGI [10]?
**A.** The TGI was 29.8 µM.

**Q.** And the GI50 [11]?
**A.** The GI50 was 17 µM.

**Q.** And the TGI [11]?
**A.** The TGI was 30.7 µM.

**Q.** And the GI50 [12]?
**A.** Its GI50 is 14.1 µM.

**Q.** What about the TGI [12] of the same compound?
**A.** Its TGI is 43.8 µM.

**Q.** And the GI50 [13]?
**A.** Its GI50 is 18.2 µM.

**Q.** And the TGI [13]?
**A.** The TGI was 35 µM.

**Q.** What about the GI50 [14] of the same compound?
**A.** Its GI50 is 15.9 µM.

**Q.** What about the TGI [14] of the same compound?
**A.** The TGI was 32.9 µM.

**Q.** What about the GI50 [15] of the same compound?
**A.** The GI50 was 13.1 µM.

**Q.** What about the TGI [15] of the same compound?
**A.** The TGI was 27.6 µM.

**Q.** What about the GI50 [16] of the same compound?
**A.** Its GI50 is 7.52 µM.

**Q.** And the TGI [16]?
**A.** Its TGI is 22 µM.

**Q.** And the GI50 [17]?
**A.** Its GI50 is 15.7 µM.

**Q.** What about the TGI [17] of the same compound?
**A.** The TGI was 47.7 µM.

**Q.** And the GI50 [18]?
**A.** The GI50 was 11.5 µM.

**Q.** What about the TGI [18] of the same compound?
**A.** The TGI was 60.8 µM.

**Q.** What about the GI50 [19] of the same compound?
**A.** Its GI50 is 27.5 µM.

**Q.** And the TGI [19]?
**A.** The TGI was > 100 µM.

**Q.** What about the GI50 [20] of the same compound?
**A.** The GI50 was 19.7 µM.

**Q.** And the TGI [20]?
**A.** The TGI was 42.7 µM.

**Q.** And the GI50 [21]?
**A.** Its GI50 is 16.5 µM.

**Q.** And the TGI [21]?
**A.** Its TGI is 31.6 µM.

**Q.** What about the GI50 [22] of the same compound?
**A.** The GI50 was 15.4 µM.

**Q.** And the TGI [22]?
**A.** The TGI was 29.6 µM.

**Q.** What about the GI50 [23] of the same compound?
**A.** The GI50 was 14.3 µM.

**Q.** What about the TGI [23] of the same compound?
**A.** The TGI was 27.3 µM.

**Q.** And the GI50 [24]?
**A.** Its GI50 is 16.4 µM.

**Q.** What about the TGI [24] of the same compound?
**A.** The TGI was 30.6 µM.

**Q.** And the GI50 [25]?
**A.** Its GI50 is 21.4 µM.

**Q.** What about the TGI [25] of the same compound?
**A.** The TGI was 62.2 µM.

**Q.** What about the GI50 [26] of the same compound?
**A.** The GI50 was 14.9 µM.

**Q.** What about the TGI [26] of the same compound?
**A.** The TGI was 30.5 µM.

**Q.** What about the GI50 [27] of the same compound?
**A.** The GI50 was 13.7 µM.

**Q.** And the TGI [27]?
**A.** Its TGI is 26.6 µM.

**Q.** And the GI50 [28]?
**A.** The GI50 was 23.3 µM.

**Q.** What about the TGI [28] of the same compound?
**A.** Its TGI is > 100 µM.

**Q.** And the GI50 [29]?
**A.** The GI50 was 13.1 µM.

**Q.** And the TGI [29]?
**A.** The TGI was 49.6 µM.

**Q.** What about the GI50 [30] of the same compound?
**A.** Its GI50 is 16.5 µM.

**Q.** And the TGI [30]?
**A.** The TGI was 34.1 µM.

**Q.** And the GI50 [31]?
**A.** Its GI50 is 17.7 µM.

**Q.** And the TGI [31]?
**A.** The TGI was 85.9 µM.

**Q.** And the GI50 [32]?
**A.** Its GI50 is 22.5 µM.

**Q.** And the TGI [32]?
**A.** Its TGI is 57 µM.

**Q.** What about the GI50 [33] of the same compound?
**A.** Its GI50 is 16.6 µM.

**Q.** And the TGI [33]?
**A.** Its TGI is 30.7 µM.

**Q.** And the GI50 [34]?
**A.** Its GI50 is 20.8 µM.

**Q.** What about the TGI [34] of the same compound?
**A.** Its TGI is 52.9 µM.

**Q.** What about the GI50 [35] of the same compound?
**A.** The GI50 was 18.2 µM.

**Q.** And the TGI [35]?
**A.** Its TGI is 32.2 µM.

**Q.** And the GI50 [36]?
**A.** The GI50 was 21.8 µM.

**Q.** What about the TGI [36] of the same compound?
**A.** Its TGI is 43.5 µM.

**Q.** And the GI50 [37]?
**A.** Its GI50 is 11.9 µM.

**Q.** What about the TGI [37] of the same compound?
**A.** The TGI was 24.6 µM.

**Q.** And the GI50 [38]?
**A.** The GI50 was 15.6 µM.

**Q.** What about the TGI [38] of the same compound?
**A.** Its TGI is 29.9 µM.

**Q.** What about the GI50 [39] of the same compound?
**A.** The GI50 was 18.1 µM.

**Q.** And the TGI [39]?
**A.** The TGI was 34.4 µM.

**Q.** And the GI50 [40]?
**A.** Its GI50 is 16 µM.

**Q.** What about the TGI [40] of the same compound?
**A.** The TGI was 29.5 µM.

**Q.** And the GI50 [41]?
**A.** The GI50 was 15.1 µM.

**Q.** And the TGI [41]?
**A.** Its TGI is 28.4 µM.

**Q.** And the GI50 [42]?
**A.** The GI50 was 16.4 µM.

**Q.** And the TGI [42]?
**A.** Its TGI is 30.2 µM.

**Q.** And the GI50 [43]?
**A.** Its GI50 is 16 µM.

**Q.** What about the TGI [43] of the same compound?
**A.** The TGI was 30 µM.

**Q.** And the GI50 [44]?
**A.** Its GI50 is 20.7 µM.

**Q.** What about the TGI [44] of the same compound?
**A.** The TGI was 74.9 µM.

**Q.** What about the GI50 [45] of the same compound?
**A.** The GI50 was 14.9 µM.

**Q.** What about the TGI [45] of the same compound?
**A.** The TGI was 28.1 µM.

**Q.** And the GI50 [46]?
**A.** The GI50 was 16.7 µM.

**Q.** And the TGI [46]?
**A.** The TGI was 56.4 µM.

**Q.** And the GI50 [47]?
**A.** Its GI50 is 13.4 µM.

**Q.** What about the TGI [47] of the same compound?
**A.** The TGI was 27.5 µM.

**Q.** And the GI50 [48]?
**A.** The GI50 was 16.7 µM.

**Q.** And the TGI [48]?
**A.** The TGI was 30.9 µM.

**Q.** What about the GI50 [49] of the same compound?
**A.** The GI50 was 16.6 µM.

**Q.** And the TGI [49]?
**A.** The TGI was 30.2 µM.

**Q.** What about the GI50 [50] of the same compound?
**A.** Its GI50 is 13.7 µM.

**Q.** And the TGI [50]?
**A.** Its TGI is 27 µM.

**Q.** What about the GI50 [51] of the same compound?
**A.** Its GI50 is 16.8 µM.

**Q.** What about the TGI [51] of the same compound?
**A.** The TGI was 30.4 µM.

**Q.** What about the GI50 [52] of the same compound?
**A.** The GI50 was 15.5 µM.

**Q.** What about the TGI [52] of the same compound?
**A.** Its TGI is 28.9 µM.

**Q.** What about the GI50 [53] of the same compound?
**A.** The GI50 was 12.8 µM.

**Q.** What about the TGI [53] of the same compound?
**A.** The TGI was 40.2 µM.

**Q.** What about the GI50 [54] of the same compound?
**A.** Its GI50 is 22.3 µM.

**Q.** What about the TGI [54] of the same compound?
**A.** Its TGI is 69.2 µM.

**Q.** What about the GI50 [55] of the same compound?
**A.** Its GI50 is 12.9 µM.

**Q.** What about the TGI [55] of the same compound?
**A.** The TGI was 30.5 µM.
